Laboratory results reported in PubChem BioAssay (NCI).
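Assay format: 96-well plates, 48-hour exposure. GI50 is the concentration that inhibits growth by half. The concentration for full growth arrest is given as TGI.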

Tests used:
Test in all cases: NCI tumour cell line growth inhibition, 48 h
CAKI-1 renal = test system: CAKI-1 renal
MALME-3M melanoma = test system: MALME-3M melanoma
OVCAR-5 ovarian = test system: OVCAR-5 ovarian
SK-MEL-28 melanoma = test system: SK-MEL-28 melanoma
HOP-62 NSCLC = test system: HOP-62 NSCLC
HCT-116 colon = test system: HCT-116 colon
U251 CNS = test system: U251 CNS
UACC-257 melanoma = test system: UACC-257 melanoma
K-562 leukemia = test system: K-562 leukemia
OVCAR-4 ovarian = test system: OVCAR-4 ovarian

Structure (SMILES) | TGI (CAKI-1 renal) | TGI (MALME-3M melanoma) | TGI (OVCAR-5 ovarian) | TGI (SK-MEL-28 melanoma) | TGI (HOP-62 NSCLC) | TGI (HCT-116 colon) | TGI (U251 CNS) | TGI (UACC-257 melanoma) | TGI (K-562 leukemia) | TGI (OVCAR-4 ovarian) | GI50 (CAKI-1 renal) | GI50 (MALME-3M melanoma) | GI50 (OVCAR-5 ovarian) | GI50 (SK-MEL-28 melanoma) | GI50 (HOP-62 NSCLC) | GI50 (HCT-116 colon) | GI50 (U251 CNS) | GI50 (UACC-257 melanoma) | GI50 (K-562 leukemia) | GI50 (OVCAR-4 ovarian)
Cc1ccc(N2C(=O)/C(=C/c3ccc(N(CCC#N)CCC#N)cc3C)N=C2c2cc([N+](=O)[O-])ccc2Cl)cc1 | > 100 µM | > 100 µM | > 100 µM | > 100 µM | > 100 µM | > 100 µM | > 100 µM | > 100 µM | > 100 µM | > 100 µM |  |  |  |  |  |  |  |  |  | 
COCCNC(=O)c1ccc(-c2nc3ccc4[nH]ncc4c3c3c2CCCC3)cc1 | 7.29 µM | 18 µM | > 100 µM | 98.2 µM | 39.5 µM | > 100 µM | > 100 µM | > 100 µM | > 100 µM | 72.9 µM | 0.689 µM | 2.74 µM | 6.05 µM | 2.49 µM | 0.969 µM | 1.2 µM | 2.6 µM | 5.38 µM | 3.86 µM | 4.59 µM
[C-]#[N+]C(C)(C)C[C@H]1CC(C)C2CCC(C)C3([N+]#[C-])CCC(=C)C1[C@H]23 (stereo not given in full) | 20.1 µM | 25.3 µM | 8.49 µM | > 50 µM | 19.3 µM | 6.6 µM | 11.8 µM | 10.9 µM | > 50 µM | 13.1 µM |  |  |  |  |  |  |  |  |  | 
COc1ccc2c(c1)CC1c3c(cc4c(c3-2)OCO4)CCN1C (stereo not given) | 60.2 µM | 83.3 µM | > 100 µM | 95.8 µM | 96.7 µM | 70.6 µM | > 100 µM | 57.5 µM | > 100 µM | 52.2 µM |  |  |  |  |  |  |  |  |  | 
O=C1C(=O)c2ccccc2C(O)=C1CCCCCCCCC1CCCCC1 | 57 µM | 10.2 µM | 32.2 µM | 35 µM | 36.7 µM | 12.3 µM | 17.8 µM | 72.8 µM | 12.1 µM | > 100 µM |  |  |  |  |  |  |  |  |  | 
CC(C)(c1ccc(OC#N)cc1)c1ccc(OC#N)cc1 | > 100 µM | > 100 µM | > 100 µM | > 100 µM | > 100 µM | > 61 µM | > 100 µM | > 100 µM | > 100 µM | > 100 µM |  |  |  |  |  |  |  |  |  | 
Clc1ccc2c(c1)-c1ccccc1C1=NCCN12 | 5.8 µM | 4.17 µM | 13.4 µM | 3.54 µM | 6.02 µM | 6.86 µM | 7.14 µM | 3.3 µM | 7.61 µM | 7.35 µM | 1.83 µM | 1.77 µM | 2.68 µM | 1.74 µM | 1.98 µM | 0.719 µM | 1.98 µM | 1.54 µM | 2.2 µM | 1.99 µM
COc1cc(/C=C/C(=O)c2c(C)n([O-])c3ccc(Cl)cc3[n+]2=O)cc(OC)c1OC | > 100 µM | 35.3 µM | > 100 µM | > 100 µM | > 100 µM | > 100 µM | > 100 µM | > 100 µM | > 100 µM | > 100 µM | > 100 µM | 14.1 µM | > 100 µM | > 100 µM | 60.2 µM | 76 µM | 34.4 µM | 49.6 µM | 15.2 µM | > 100 µM
O=C(CCCCCCC(=O)Nc1ccc2c(c1)/C(=C/c1ccc[nH]1)C(=O)N2)NO | > 100 µM | 35.4 µM | 5.75 µM | 9.3 µM | 4.49 µM | 2.87 µM | 2.29 µM | 5.44 µM | > 100 µM | 52 µM | 2.33 µM | 0.0758 µM | 0.755 µM | 0.372 µM | 0.353 µM | 0.23 µM | 0.416 µM | 0.353 µM | 0.333 µM | 1.27 µM
Cc1nn(-c2nc3ccccc3[nH]2)c2c1C(c1ccc3c(c1)OCO3)CC(=O)N2 (stereo not given) | 7.04 µM | 6.04 µM | > 100 µM | 32.6 µM | 5.21 µM | 4.73 µM | 4.79 µM | 6.96 µM | > 100 µM | > 87.4 µM | 2.55 µM | 2.12 µM | 5.43 µM | 3.39 µM | 2.38 µM | 2.24 µM | 2.14 µM | 2.41 µM | 3.58 µM | 3.51 µM
O=C(N/N=C\c1ccc(N(CCCl)CCCl)cc1Cl)c1cccnc1 | 48.2 µM | 64.2 µM | 11.3 µM | > 100 µM | > 78 µM | 36.6 µM | 94.1 µM | 3.48 µM | > 100 µM | 38.5 µM | 7.06 µM | 21.4 µM | 0.981 µM | 26.5 µM | 13.6 µM | 3.23 µM | 10.4 µM | 1.08 µM | 7.38 µM | 5.28 µM
c1ccc(SC(CCCCOC2CCCCO2)Sc2ccccc2)cc1 (stereo not given) | > 100 µM | > 100 µM | > 100 µM | > 100 µM | > 100 µM | > 100 µM | > 100 µM | > 100 µM | > 100 µM | > 100 µM |  |  |  |  |  |  |  |  |  | 
OC(CNc1ccnc2cc(Cl)ccc12)CNC1CCCCC1 (stereo not given) | 4.05 µM | 3.8 µM | 38.4 µM | 3.31 µM | 26.3 µM | 16.7 µM | 5.37 µM | 3.33 µM | 5.17 µM | 23.8 µM | 1.84 µM | 1.89 µM | 12.6 µM | 1.76 µM | 12.3 µM | 4.66 µM | 2.14 µM | 1.78 µM | 2.07 µM | 3.6 µM
COc1ccccc1/C=N/N=C(\N)NO | > 100 µM | > 100 µM | 24.3 µM | > 100 µM | 76.6 µM | > 100 µM | > 100 µM | > 100 µM | > 100 µM | > 100 µM |  |  |  |  |  |  |  |  |  | 
COc1cc(-c2oc3c(OC)c(O)c(OC)c(O)c3c(=O)c2OC)ccc1O | 90.1 µM | > 100 µM | > 100 µM | > 100 µM | 61.4 µM | > 100 µM | > 100 µM | > 100 µM | > 100 µM | > 100 µM |  |  |  |  |  |  |  |  |  | 
O=C(/C=C/c1ccc(C(F)(F)F)cc1)c1ccc(Nc2nc(NCCO)nc(N3CCOCC3)n2)cc1 | 15.6 µM | 10.2 µM | 3.97 µM | 11.5 µM | 6.57 µM | 2.74 µM | 3.38 µM | 17.8 µM | > 100 µM | 10.2 µM | 2.54 µM | 2.91 µM | 1.74 µM | 3.25 µM | 2.22 µM | 1.43 µM | 1.63 µM | 3.98 µM | 2.33 µM | 3.05 µM
